“Also recorded” adds a separate entry of the source.
How the values were obtained:
DU145 [1] = experiment: Quantitative RT-PCR of gene expression; format: cell-based, human; conditions: for PAX2 message levels: DU145, Losartan (FIG. 20A)
Description: Total RNA was isolated using the SV Total RNA Isolation System (Promega). Briefly, approximately 1×10^6 cells were harvested by trypsinizing, and rinsed in PBS. Cells were then lysed and total RNA was isolated by centrifugation through spin columns. Total RNA (0.5 μg per reaction) was reverse transcribed into cDNA utilizing Oligo (dT) 15 primer (Promega) and AMV Reverse Transcriptase II enzyme (500 units per reaction; Promega) for first strand synthesis and Tfl DNA Polymerase for second strand synthesis (500 units per reaction; Promega) as per the manufacturers' protocol, with identical control samples treated without RT enzyme. Typically, 50 pg of each cDNA was used per ensuing PCR reaction Two-step QRT-PCR was performed on cDNA generated using the MultiScribe Reverse Transcripatase from the TaqMan Reverse Transcription System and the SYBR Green PCR Master Mix (PE Biosystems). […] Reactions were performed in MicroAmp Optical 96-well Reaction Plate (PE Biosystems). Forty cycles of PCR were performed under standard conditions using an annealing temperature of 60° C. Quantification was determined by the cycle number where exponential amplification began (threshold value) and averaged from the values obtained from the triplicate repeats. There was an inverse relationship between message level and threshold value. In addition, GAPDH was used as a housekeeping gene to normalize the initial content of total cDNA. […] All reactions were carried out in triplicate.
Forty cycles of PCR were performed under standard conditions using an annealing temperature of 56° C. In addition, GAPDH was amplified as a housekeeping gene to normalize the initial content of total cDNA. […] All reactions were run three times in triplicate.

DU145 [2] = experiment: Western analysis; format: cell-based, human; conditions: 5 uM Los, 25 uM U0126, 20 uM PD98059, 250 μM AICAR
DU145 [3] = experiment: Western analysis; format: cell-based, human; conditions: for PAX2 expression / phospho-PAX2 protein levels / phospho-JNK protein levels: DU145; for PAX2 expression / phospho-PAX2 protein levels: 5 uM Los, 25 uM U0126, 20 uM PD98059, 250 μM AICAR
Description: . Following a 15 minute incubation period at 4° C. on an orbital shaker, cell lysate were then collected and centrifuged for 10 minutes at 12000×g to pellet cellular debris. The protein-containing supernatant were then collected and quantitated. Next, 25 μg protein extract was loaded onto an 8-16% gradient SDS-PAGE (Novex). Following electrophoresis, proteins were transferred to PVDF membranes, and then blocked with 5% nonfat dry milk in TTBS (0.05% Tween 20 and 100 mM Tris-Cl) for 1 hour. Blots were then probed with rabbit anti-PAX2 primary antibody (Zymed, San Francisco, Calif.) at a 1:2000 dilution. After washing, the membranes were incubated with anti-rabbit antibody conjugated to horseradish peroxidase (HRP) (dilution 1:5000; Sigma), and signal detection was visualized using chemilluminescence reagents (Pierce) on an Alpha Innotech Fluorchem 8900. As a control, blots were stripped and reprobed with mouse anti-β-actin primary antibody (1:5000; Sigma-Aldrich) and HRP-conjugated anti-mouse secondary antibody (1:5000; Sigma-Aldrich) and signal detection was again visualized.
Following a 15-minute incubation period at 4° C. on an orbital shaker, cell lysates were collected and centrifuged for 10 minutes at 12000×g to pellet cellular debris. The protein-containing supernatant were then collected and quantitated. Next, 25 ug protein extract was loaded onto an 8-16% gradient SDS-PAGE (Novex). Following electrophoresis, proteins were transferred to PVDF membranes, and then blocked with 5% nonfat dry milk in TTBS (0.05% Tween 20 and 100 mM Tris-Cl) for 1 hour. Blots were then probed with primary antibody (anti-PAX2, -phospho-PAX2, -JNK, -phospho-JNK, -ERK1/2, or -phospho-ERK1/2) (Zymed, San Francisco, Calif.) at 1:1000-2000 dilutions. After washing, the membranes were incubated with anti-rabbit antibody conjugated to horseradish peroxidase (HRP) (dilution 1:5000; Sigma), and signal detection was visualized using chemilluminescence reagents (Pierce) on an Alpha Innotech Fluorchem 8900. As a control, blots were stripped and re-probed with mouse anti-β-actin primary antibody (1:5000; Sigma-Aldrich) and HRP-conjugated anti-mouse secondary antibody (1:5000; Sigma-Aldrich), and signal detection was again visualized.
. Following a 15-min incubation period at 4° C. on an orbital shaker, cell lysates were collected and centrifuged for 10 min at 12,000 g to pellet cellular debris. The protein-containing supernatant were then collected and quantitated. Next, 25 μg protein extract was loaded onto an 8-16% gradient SDS-PAGE (Novex). Following electrophoresis, proteins were transferred to PVDF membranes, and then blocked with 5% non-fat dry milk in TTBS (0.05% Tween 20 and 100 mM Tris-Cl) for 1 h. Blots were then probed with rabbit anti-PAX2 primary antibody (Zymed, San Francisco, Calif.) at a 1:1000 dilution. After washing, the membranes were incubated with anti-rabbit antibody conjugated to horseradish peroxidase (HRP) (dilution 1:5000; Sigma), and signal detection was visualized using chemiluminescence reagents (Pierce) on an Alpha Innotech Fluorchem 8900. As a control, blots were stripped and reprobed with mouse anti-β-actin primary antibody (1:5000; Sigma-Aldrich) and HRP-conjugated anti-mouse secondary antibody (1:5000; Sigma-Aldrich), and signal detection was again visualized.

HPrEC = experiment: Quantitative RT-PCR of gene expression; format: cell-based, human; conditions: for decrease in DEFB1 expression compared to untreated hPrEC / increase in PAX2 expression compared to untreated hPrEC: 10 uM AngII; for PAX2 expression as % of PAX2 levels in PC3: AngII
Description: RNA Isolation and Quantitative RT-PCR: In order to verify changes in DEFB1 expression levels RNA was collected after 4 days of PAX2 siRNA treatment. Briefly, total RNA was isolated using the SV Total RNA Isolation System (Promega, Madison, Wis.) from approximately 1×10^6 cells harvested by trypsinizing. Here, cells were lysed and total RNA was isolated by centrifugation through spin columns. Total RNA (0.5 μg per reaction) from both sources was reverse transcribed into cDNA utilizing random primers (Promega). AMV Reverse Transcriptase II enzyme (500 units per reaction; Promega) was used for first strand synthesis and Tfl DNA Polymerase for second strand synthesis (500 units per reaction; Promega) as per the manufacturer's protocol. In each case, 50 pg of cDNA was used per ensuing PCR reaction. Two-step QRT-PCR was performed on cDNA generated using the MultiScribe Reverse Transcripatase from the TaqMan Reverse Transcription System and the SYBR Green PCR Master Mix (Applied Biosystems).
The primer pair for DEFB1 was generated from the published DEFB1 sequence (Accession No. U50930). Forty cycles of PCR were performed under standard conditions using an annealing temperature of 56° C. In addition, GAPDH was amplified as a housekeeping gene to normalize the initial content of total cDNA. DEFB1 expression was calculated as the relative expression ratio between DEFB1 and GAPDH and was compared in cells lines before and after siRNA knock-down of PAX2 expression. All reactions were run three times in triplicate.
QRT-PCR Analysis: Quantitative real-time RT-PCR was performed to verify changes in gene expression following PAX2 knockdown in PC3 and DU145 prostate cancer cell lines and the hPrEC normal prostate epithelial cells. Approximately 1×10^6 cells were harvested by trypsinizing and the cells were rinsed in PBS. Cells were then lysed and total RNA was isolated by centrifugation through spin columns using the SV Total RNA Isolation System (Promega). cDNA was generated (0.5 μg per reaction) by reverse transcription by Oligo (dT) 15 primer (Promega) and AMV Reverse Transcriptase II enzyme (500 units per reaction; Promega) for first strand synthesis and Tfl DNA Polymerase for second strand synthesis (500 units per reaction; Promega) as per the manufacturer's protocol. Typically, 50 pg of each cDNA was used per ensuing PCR reaction. Two-step QRT-PCR was performed on cDNA generated using the MultiScribe Reverse Transcripatase from the TaqMan Reverse Transcription System and the SYBR Green PCR Master Mix (PE Biosystems). Reactions were performed in MicroAmp Optical 96-well Reaction Plate (PE Biosystems). Forty cycles of PCR were performed under standard conditions using an annealing temperature of 60° C. Quantification was determined by the cycle number where exponential amplification began (threshold value) and averaged from the values obtained from the triplicate repeats. There was an inverse relationship between message level and threshold value. In addition, GAPDH was used as a housekeeping gene to normalize the initial content of total cDNA. Relative expression was calculated as the ratio between each genes and GAPDH. All reactions were carried out in triplicate.
RNA isolation and quantitative RT-PCR: QRT-PCR was performed as previously described (Gibson et al., 2007). Briefly, total RNA (0.5 μg per reaction) from tissue sections were reverse transcribed into cDNA utilizing random primers (Promega). Two-step QRT-PCR was performed on cDNA generated using the MultiScribe Reverse Transcriptase from the TaqMan Reverse Transcription System and the SYBR Green PCR Master Mix (Applied Biosystems, Foster City, Calif.). The primer pairs for hBD-1 and c-MYC were generated from the published sequences (Table 7). Forty cycles of PCR were performed under standard conditions using an annealing temperature of 56.4° C. for hBD-1 and c-MYC and 55° C. for PAX2. […]

DU145 [4] = experiment: [3H] thymidine incorporation proliferation; format: cell-based, human; conditions: for increase in proliferation: 72 hours; for effect of AngII on proliferation after Los pre-treatment: DU145, Los 30 min prior to AngII
Description: Reagents and Treatments: […] Thymidine Incorporation: Proliferation of cells was determined by [3H] thymidine […] ([3H] TdR) incorporation into DNA. 0.5×10^6 cells/well of suspension DU145 cells were plated in their appropriate media. Cells were incubated for 72 h with or without the presence of AngII at the indicated concentrations. Cells were exposed to 37 kBq/ml [methyl-3H] thymidine in the same medium for 6 h. The adherent cells were fixed by 5% trichloroacetic acid and lysed in SDS/NaOH lysis buffer overnight. Radioactivity was measured by Beckman LS3801 liquid scintillation counter (Canada). Suspension cell culture was harvested by cell harvester (Packard instrument Co., Meriden, Conn.), and radioactivity was measured by 1450 microbeta liquid scintillation counter (PerkinElmer Life Sciences).

[5] = system: human prostate cancer cells; conditions: xenograft models of human prostate cancer cells; cited from earlier work
[6] = AngII 72 and 96 hours (FIG. 25 legend)

**Q.** With `Cc1cc(Cn2cnc3c2C[C@@H](C(=O)O)N(C(=O)C(c2ccccc2)c2ccccc2)C3)ccc1N(C)C` [PD123319] as the molecule, how does the PAX2 expression increase (DU145 [1]; DU145, 5 uM PD123319, 48 hours) read?
**A.** The PAX2 expression increase was 7 fold.

**Q.** And the PAX2 expression increase (DU145 [1]; DU145, 5 uM PD123319, 96 hours)?
**A.** The PAX2 expression increase was 8 fold.

**Q.** Which results are given for `NC(=O)c1ncn([C@@H]2O[C@H](CO)[C@@H](O)[C@H]2O)c1N` [AICAR, 5-Aminoimidazole-4-carboxamide-1-β-4-ribofuranoside]?
**A.** phospho-STAT3 protein levels (DU145 [2]): also suppressed; PAX2 expression (DU145 [3]): suppresses PAX2 protein expression; also recorded: suppressed PAX2 expression; also recorded: suppression of PAX2 pression expression; phospho-PAX2 protein levels (DU145 [3]): suppression

**Q.** With `N#CC(=C(/N)Sc1ccccc1N)/C(C#N)=C(\N)Sc1ccccc1N` [Drug U0126] as the molecule, how does the phospho-STAT3 protein levels (DU145 [2]) read?
**A.** The phospho-STAT3 protein levels was “reduced phospho-STAT3 protein levels”.

**Q.** And the phospho-JNK protein levels (DU145 [3])?
**A.** Its phospho-JNK protein levels is “did not decrease”.

**Q.** And the PAX2 expression (DU145 [3])?
**A.** Its PAX2 expression is “significant reduction of PAX2 expression”.

**Q.** What about the phospho-PAX2 protein levels (DU145 [3]) of the same molecule?
**A.** The phospho-PAX2 protein levels was “significant decrease or suppression”.

**Q.** With “AngII: Angiotensin II, major regulator of blood pressure, potent mitogen, binds AT1R and AT2R (DRVYIHPF)” as the molecule, how does the PAX2 expression increase (DU145 [1]; DU145, 5 μM AngII, 72 hours (FIG. 21 legend)) read?
**A.** The PAX2 expression increase was 2 fold.

**Q.** What about the PAX2 expression increase (DU145 [1]; DU145, 10 μM AngII, 72 hours (FIG. 21 legend)) of the same molecule?
**A.** The PAX2 expression increase was greater than 3 fold.

**Q.** And the “decrease in DEFB1 expression compared to untreated hPrEC” value (HPrEC; 72 hours)?
**A.** Its value is 35%.

**Q.** And the “increase in PAX2 expression compared to untreated hPrEC” value (HPrEC; 72 hours)?
**A.** The value was 66%.

**Q.** What about the “decrease in DEFB1 expression compared to untreated hPrEC” value (HPrEC; 96 hours) of the same molecule?
**A.** The value was 50%.

**Q.** What about the “increase in PAX2 expression compared to untreated hPrEC” value (HPrEC; 96 hours) of the same molecule?
**A.** The value was 79%.

**Q.** And the DEFB1 expression (HPrEC; [6])?
**A.** The DEFB1 expression was “reduced significantly”.

**Q.** What about the PAX2 expression (HPrEC; [6]) of the same molecule?
**A.** The PAX2 expression was “dramatic increases in PAX2 to levels similar to PC3 prostate cancer cells”.

**Q.** And the “PAX2 expression as % of PAX2 levels in PC3” value (HPrEC; 72 hours)?
**A.** Its value is 77%.

**Q.** What about the “PAX2 expression as % of PAX2 levels in PC3” value (HPrEC; 96 hours) of the same molecule?
**A.** Its value is 89%.

**Q.** And the phospho-JNK protein levels (DU145 [3])?
**A.** Its phospho-JNK protein levels is “increased phosphor-JNK protein levels”.

**Q.** And the “PAX2 expression over time” value (DU145 [3]; DU145, AngII, 30 min to 48 hour (FIG. 19))?
**A.** The value was “increased as early as 4 hours and persisted until 48 hours; also recorded: progressively increased over time”.

**Q.** What about the increase in proliferation (DU145 [4]; DU145, 5 μM AngII) of the same molecule?
**A.** The increase in proliferation was 2 fold.

**Q.** What about the increase in proliferation (DU145 [4]; DU145, 10 μM AngII) of the same molecule?
**A.** Its increase in proliferation is greater than 3 fold.

**Q.** What about the “increase in proliferation rate” value (DU145 [4]; DU145, AngII 5 or 10 uM) of the same molecule?
**A.** The value was “two- to three-fold increase”.

**Q.** Which results are given for `CCCCc1nc(Cl)c(CO)n1Cc1ccc(-c2ccccc2-c2nn[nH]n2)cc1` [Losartan]?
**A.** tumor growth and vascularization [5]: reduce tumor growth and vascularization; PAX2 expression compared to untreated control (DU145 [1]; DU145, 5 uM Los, 72 hours): 50%; PAX2 message levels (DU145 [1]): decreased by at least half; PAX2 message levels (DU145 [1]; listed as Los): significantly reduced PAX2 expression; phospho-STAT3 protein levels (DU145 [2]): suppresses phospho-STAT3 protein expression; phospho-STAT3 protein levels (DU145 [2]; listed as Los): reduced phospho-STAT3 protein levels; ERK protein levels (DU145 [3]; DU145, 5 uM Los): no effect; phospho-ERK (DU145 [3]; DU145, 5 uM Los): suppresses phosphor-ERK 1/2; phospho-ERK (DU145 [3]; DU145, 5 uM Los, listed as Los): reduced the amount of phospho-ERK; PAX2 expression (DU145 [3]): suppresses; phospho-PAX2 protein levels (DU145 [3]): significant decrease or suppression; PAX2 expression (DU145 [3]; listed as Los): significant reduction of PAX2 expression; decrease in proliferation (DU145 [4]; DU145, 5 μM Losartan): 50%; effect of AngII on proliferation after Los pre-treatment (DU145 [4]): blocked the effect of AngII on proliferation; effect of AngII on proliferation after Los pre-treatment (DU145 [4]; listed as Los): suppressed the effect of AngII on proliferation

**Q.** Which results are given for `COc1cccc(-c2cc(=O)c3ccccc3o2)c1N` [PD98059]?
**A.** phospho-STAT3 protein levels (DU145 [2]): reduced phospho-STAT3 protein levels; PAX2 expression (DU145 [3]): decreased PAX2; phospho-PAX2 protein levels (DU145 [3]): significant decrease or suppression
